Data: the Kinase Knowledgebase extract (Sharma et al. 2016)

target: EGFR (UniProt P00533)
Sequence (P00533 whole entry, looked up): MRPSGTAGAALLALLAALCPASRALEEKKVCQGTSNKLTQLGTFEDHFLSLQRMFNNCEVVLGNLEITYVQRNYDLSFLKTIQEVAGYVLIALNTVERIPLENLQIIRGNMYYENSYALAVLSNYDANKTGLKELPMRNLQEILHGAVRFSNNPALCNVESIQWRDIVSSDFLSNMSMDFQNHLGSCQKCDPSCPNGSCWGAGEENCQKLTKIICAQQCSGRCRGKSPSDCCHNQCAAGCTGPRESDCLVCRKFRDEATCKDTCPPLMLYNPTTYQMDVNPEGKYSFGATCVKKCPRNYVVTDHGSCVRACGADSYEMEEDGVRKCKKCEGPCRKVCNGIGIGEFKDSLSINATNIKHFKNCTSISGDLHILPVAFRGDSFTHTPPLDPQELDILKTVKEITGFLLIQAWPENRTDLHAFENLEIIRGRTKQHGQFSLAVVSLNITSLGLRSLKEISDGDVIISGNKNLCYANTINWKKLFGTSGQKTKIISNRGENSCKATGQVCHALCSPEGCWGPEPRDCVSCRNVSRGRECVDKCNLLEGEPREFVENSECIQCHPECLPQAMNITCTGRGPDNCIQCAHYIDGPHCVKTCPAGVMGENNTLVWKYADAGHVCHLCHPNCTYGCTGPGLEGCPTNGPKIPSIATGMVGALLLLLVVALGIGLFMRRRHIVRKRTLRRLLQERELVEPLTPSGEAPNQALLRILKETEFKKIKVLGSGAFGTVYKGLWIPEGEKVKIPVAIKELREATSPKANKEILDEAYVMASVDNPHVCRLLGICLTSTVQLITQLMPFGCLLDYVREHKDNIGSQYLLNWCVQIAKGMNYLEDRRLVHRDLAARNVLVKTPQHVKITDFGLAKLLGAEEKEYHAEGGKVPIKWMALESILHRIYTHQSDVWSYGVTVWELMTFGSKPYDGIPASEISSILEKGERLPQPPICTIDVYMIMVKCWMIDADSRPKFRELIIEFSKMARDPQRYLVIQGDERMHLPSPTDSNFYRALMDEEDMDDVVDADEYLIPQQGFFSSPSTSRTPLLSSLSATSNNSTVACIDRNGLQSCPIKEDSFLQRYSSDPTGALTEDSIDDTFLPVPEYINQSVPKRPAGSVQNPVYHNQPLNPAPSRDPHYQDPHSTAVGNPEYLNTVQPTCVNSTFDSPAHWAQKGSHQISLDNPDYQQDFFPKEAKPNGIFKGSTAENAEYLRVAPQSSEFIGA

IC50, < 50 nM:
COc1cc2c(Nc3ccc(Br)c(Cl)c3)ncnc2cc1OCC1CN(C)CCO1 (stereo unspecified)
COc1cc2c(Nc3ccc(Cl)c(Cl)c3)ncnc2cc1OCC1CN(CCc2ccccc2)CCO1 (stereo unspecified)
COc1cc2c(Nc3ccc(Cl)c(Cl)c3)ncnc2cc1OCc1csc([C@@H]2CCCN2C)n1
COc1cc2c(Nc3ccc(Cl)cc3F)ncnc2cc1O[C@@H]1CO[C@@H]2[C@H]1OC[C@H]2F
COc1cc2c(Nc3ccc(Br)c(Cl)c3)ncnc2cc1O[C@H]1CO[C@@H]2[C@H]1OC[C@@H]2N(C)C
CNC(=NC#N)N1CCOC(COc2cc3ncnc(Nc4ccc(Cl)c(Cl)c4)c3cc2OC)C1 (stereo unspecified)
COc1cc2c(Nc3ccc(Cl)c(Cl)c3)ncnc2cc1OCc1csc(C2CCN(C)CC2)n1
COc1cc2c(Nc3ccc(Cl)c(Cl)c3)ncnc2cc1OCC1CN(CCCCF)CCO1 (stereo unspecified)
COc1cc2c(Nc3ccc(Cl)c(Cl)c3)ncnc2cc1OCC1CN(C(=O)C2CCCC2)CCO1 (stereo unspecified)
COc1cc2c(Nc3ccc(Cl)c(Cl)c3)ncnc2cc1O[C@@H]1CO[C@@H]2[C@H]1OC[C@H]2F
COc1cc2c(Nc3ccc(Br)cc3F)ncnc2cc1OCC1CCN(C(N)=NC#N)CC1
CCN1CCN(C)CC1COc1cc2ncnc(Nc3ccc(Cl)c(Cl)c3)c2cc1OC (stereo unspecified)
CCN1CCC[C@H]1c1nc(COc2cc3ncnc(Nc4ccc(Cl)c(Cl)c4)c3cc2OC)cs1
COc1cc2c(Nc3ccc(Br)c(Cl)c3)ncnc2cc1O[C@H]1CO[C@@H]2[C@H]1OC[C@@H]2N1CCCCC1
COc1cc2c(Nc3ccc(Cl)c(Cl)c3)ncnc2cc1OCC1CN(C2CCC2)CCO1 (stereo unspecified)
COc1cc2c(Nc3ccc(Cl)c(Cl)c3)ncnc2cc1OCC1CN(CCCOC2CCCCO2)CCCO1 (stereo unspecified)
COc1cc2c(Nc3ccc(Br)c(Cl)c3)ncnc2cc1O[C@@H]1CO[C@@H]2[C@H]1OC[C@@H]2O
COC(=O)CCN1CCOC(COc2cc3ncnc(Nc4ccc(Cl)c(Cl)c4)c3cc2OC)C1 (stereo unspecified)
COc1cc2c(Nc3cc(Cl)c(Cl)cc3F)ncnc2cc1OC[C@H]1CN2CCOC[C@H]2CO1
COc1cc2c(Nc3cc(Br)cc(C(F)(F)F)c3)ncnc2cc1O[C@@H]1CO[C@@H]2[C@H]1OC[C@H]2F
COc1cc2c(Nc3ccc(Cl)c(Cl)c3)ncnc2cc1OCc1csc(CN2CCCC2)n1
COc1cc2c(Nc3ccc(Cl)c(Cl)c3)ncnc2cc1OCC1CN(C(=NC#N)N2CCN(C)CC2)CCO1 (stereo unspecified)
CCCCc1ccc(C(=O)N2CCOC(COc3cc4ncnc(Nc5ccc(Cl)c(Cl)c5)c4cc3OC)C2)cc1 (stereo unspecified)
CC(C)Oc1cc2c(Nc3ccc(Cl)c(Cl)c3)ncnc2cc1OCC1CN(C)CCO1 (stereo unspecified)
COc1cc2c(Nc3ccc(Cl)c(Cl)c3F)ncnc2cc1OC[C@@H]1CN(C)CC(=O)N1
CCC(C(=O)N1CCOC(COc2cc3ncnc(Nc4ccc(Cl)c(Cl)c4)c3cc2OC)C1)c1ccccc1 (stereo unspecified)
COc1cc2c(Nc3cccc(F)c3F)ncnc2cc1O[C@@H]1CO[C@@H]2[C@H]1OC[C@H]2F
COc1cc2c(Nc3ccc(F)c(Cl)c3F)ncnc2cc1O[C@@H]1CO[C@@H]2[C@H]1OC[C@H]2F
COc1cc2c(Nc3ccc(Br)c(Cl)c3F)ncnc2cc1O[C@H]1CO[C@H]2[C@@H]1OC[C@@H]2OC
COc1cc2c(Nc3ccc(Cl)c(Cl)c3)ncnc2cc1OCc1noc(-c2c(C)noc2C)n1
COc1cc2c(Nc3cc(F)cc(F)c3)ncnc2cc1O[C@@H]1CO[C@@H]2[C@H]1OC[C@H]2F
COc1cc2c(Nc3cc(Cl)c(Cl)cc3F)ncnc2cc1OC[C@H]1C[C@@H]2CN(C)C[C@@H]2C1
COc1cc2c(Nc3cc(Cl)c(Br)cc3F)ncnc2cc1OCC1CO[C@@H]2[C@@H](OC)CO[C@H]12 (stereo partly specified)
COc1cc2c(Nc3ccc(Cl)c(Cl)c3C)ncnc2cc1OCC1CN(C)CCO1 (stereo unspecified)
COc1cc2c(Nc3ccc(Cl)c(Cl)c3)ncnc2cc1OCC1CN(CCC2CCCCC2)CCO1 (stereo unspecified)
COc1cc2c(Nc3cccc(Cl)c3C)ncnc2cc1O[C@@H]1CO[C@@H]2[C@H]1OC[C@H]2F
COc1cc2c(Nc3ccc(F)cc3)ncnc2cc1O[C@@H]1CO[C@@H]2[C@H]1OC[C@H]2F
COc1cc2c(Nc3cccc(Cl)c3F)ncnc2cc1OCC1CN(C)CCO1 (stereo unspecified)
COc1cc2c(Nc3ccc(Br)c(Cl)c3Cl)ncnc2cc1OC[C@H]1C[C@@H]2CN(C)C[C@@H]2C1
COc1cc2c(Nc3ccc(Cl)c(Cl)c3)ncnc2cc1OCc1csc([C@@H]2CCCN2)n1
COc1cc2c(Nc3ccc(Cl)c(Cl)c3)ncnc2cc1OCc1nnc(-c2ccc(C)cc2)o1
COc1cc2c(Nc3cc(F)c(Br)cc3F)ncnc2cc1OCC1CN(C)CCO1 (stereo unspecified)
COc1cc2c(Nc3cccc(Br)c3C)ncnc2cc1O[C@H]1CO[C@H]2[C@@H]1OC[C@@H]2OC
COc1cc2c(Nc3ccc(Cl)c(Cl)c3)ncnc2cc1OCC1CN(S(C)(=O)=O)CCO1 (stereo unspecified)
COc1cc2c(Nc3ccc(Br)cc3C)ncnc2cc1OCC1CN(C)CCO1 (stereo unspecified)
COc1cc2c(Nc3ccc(Cl)c(Cl)c3)ncnc2cc1OCc1nc(-c2ccncc2)cs1
COc1cc2c(Nc3c(F)cccc3F)ncnc2cc1O[C@@H]1CO[C@@H]2[C@H]1OC[C@H]2F
COc1cc2c(Nc3ccc(F)c(Cl)c3F)ncnc2cc1O[C@H]1CO[C@H]2[C@@H]1OC[C@@H]2OC
C=CCCCCN1CCOC(COc2cc3ncnc(Nc4ccc(Cl)c(Cl)c4)c3cc2OC)C1 (stereo unspecified)
COc1cc2c(Nc3cc(Cl)ccc3F)ncnc2cc1O[C@@H]1CO[C@@H]2[C@H]1OC[C@H]2F
CCC(CC)CN1CCOC(COc2cc3ncnc(Nc4ccc(Cl)c(Cl)c4)c3cc2OC)C1 (stereo unspecified)
CCCCN1CCOC(COc2cc3ncnc(Nc4ccc(Cl)c(Cl)c4)c3cc2OC)C1 (stereo unspecified)
COc1cc2c(Nc3ccc(Br)c(Cl)c3C)ncnc2cc1OCC1CN(C)CCO1 (stereo unspecified)
CCN1CCCCC1c1nc(COc2cc3ncnc(Nc4ccc(Cl)c(Cl)c4)c3cc2OC)no1 (stereo unspecified)
COc1cc2c(Nc3ccc(Cl)c(Cl)c3)ncnc2cc1OCc1c(F)cccc1F
COc1cc2c(Nc3ccc(N4CCN(C)CC4)cc3)ncnc2cc1O[C@H]1CO[C@@H]2[C@H]1OC[C@@H]2F
COCCN1CCOC(COc2cc3ncnc(Nc4ccc(Cl)c(Cl)c4)c3cc2OC)C1 (stereo unspecified)
COc1cc2c(Nc3ccc(Cl)c(Cl)c3)ncnc2cc1OCC1CN(C(=O)c2cccnc2Cl)CCO1 (stereo unspecified)
COc1cc2c(Nc3ccc(Br)c(Cl)c3)ncnc2cc1O[C@H]1CO[C@@H]2[C@H]1OC[C@@H]2N1CCN(C)CC1
CCN1CCCC(c2nc(COc3cc4ncnc(Nc5ccc(Cl)c(Cl)c5)c4cc3OC)no2)C1 (stereo unspecified)
COc1ccc(-c2nc(COc3cc4ncnc(Nc5ccc(Cl)c(Cl)c5)c4cc3OC)no2)cc1
COC[C@@]1(OC)CO[C@@H]2[C@H]1OC[C@H]2Oc1cc2ncnc(Nc3ccc(Br)c(Cl)c3)c2cc1OC
COc1cc2c(Nc3ccc(F)c(Cl)c3F)ncnc2cc1OC[C@H]1C[C@@H]2CN(C)C[C@@H]2C1
COc1cc2c(Nc3cccc(Cl)c3)ncnc2cc1O[C@@H]1CO[C@@H]2[C@H]1OC[C@H]2F
COc1cc2c(Nc3ccc(Cl)c(Cl)c3)ncnc2cc1OCc1nc(-c2ccccn2)cs1
COc1cc2c(Nc3ccc(F)c(Cl)c3)ncnc2cc1O[C@@H]1CO[C@@H]2[C@H]1OC[C@H]2F
COc1cc2c(Nc3ccc(Cl)c(Cl)c3)ncnc2cc1OCCC1CCCCC1
CCN1CCOC(COc2cc3ncnc(Nc4ccc(Cl)c(Cl)c4)c3cc2OC)C1 (stereo unspecified)
COc1cc2c(Nc3cc(Cl)c(Cl)cc3F)ncnc2cc1OC[C@@H]1CN2CCOC[C@H]2CO1
COc1cc2c(Nc3ccc(Cl)c(Cl)c3)ncnc2cc1OCC1CN(S(=O)(=O)c2ccc(F)cc2)CCO1 (stereo unspecified)
COc1cc2c(Nc3ccc(Cl)c(Cl)c3F)ncnc2cc1OC[C@@H]1CN2CCC[C@H]2C(=O)N1C
CCCC(CCC)C(=O)N1CCOC(COc2cc3ncnc(Nc4ccc(Cl)c(Cl)c4)c3cc2OC)C1 (stereo unspecified)
COc1cc2c(Nc3cccc(Cl)c3C)ncnc2cc1OCC1CN(C)CCO1 (stereo unspecified)
COc1cc2c(Nc3ccc(F)cc3C(F)(F)F)ncnc2cc1O[C@@H]1CO[C@@H]2[C@H]1OC[C@H]2F
COc1cc2c(Nc3ccc(Br)cc3Br)ncnc2cc1OCC1CN(C)CCO1 (stereo unspecified)
COc1cc2c(Nc3ccc(Cl)c(Cl)c3)ncnc2cc1OCC1CN(C(=O)c2cc(F)ccc2F)CCO1 (stereo unspecified)
COc1cc2c(Nc3ccc(Cl)c(Cl)c3)ncnc2cc1OCc1csc(CO)n1
COc1ccc(OC)c(Nc2ncnc3cc(O[C@@H]4CO[C@@H]5[C@H]4OC[C@H]5F)c(OC)cc23)c1
COc1cc2c(Nc3cc(F)c(Br)c(Cl)c3)ncnc2cc1O[C@@H]1CO[C@@H]2[C@H]1OC[C@H]2F
COc1cc2c(Nc3ccc(Cl)cc3F)ncnc2cc1OCC1CN(C)CCO1 (stereo unspecified)
COc1cc2c(Nc3ccc(F)c(Cl)c3F)ncnc2cc1OCC1CN(C)CCO1 (stereo unspecified)
